Measured values published in patent US20080221086A1, “Novel Inhibitors of Glutaminyl Cyclase” (PROBIODRUG AG, priority 2006, published 2008).
Where two headings read alike, the source gives them in different places.

How the values were obtained:
[1] = molecular target: hQC (Homo sapiens, UniProt Q16769); assay: Fluorometric assay of glutaminyl cyclase (QC) inhibition, H-Gln-βNA or H-Gln-AMC substrate; format: biochemical
In short: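 Fluorometric coupled assays at 30° C in Tris/HCl pH 8.0 with EDTA and pyroglutamyl aminopeptidase used either 0.2 mM H-Gln-βNA (320/410 nm) or H-Gln-AMC (380/460 nm), started by QC. Screening used 4 mM inhibitor at substrate 1 KM. Ki came from fitting progress curves to competitive inhibition.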

[2] = compound from preparative synthesis, purified by chromatography, fluorescent assay, read-out: IC50 hQC

Chain of hQC (Q16769 29-361): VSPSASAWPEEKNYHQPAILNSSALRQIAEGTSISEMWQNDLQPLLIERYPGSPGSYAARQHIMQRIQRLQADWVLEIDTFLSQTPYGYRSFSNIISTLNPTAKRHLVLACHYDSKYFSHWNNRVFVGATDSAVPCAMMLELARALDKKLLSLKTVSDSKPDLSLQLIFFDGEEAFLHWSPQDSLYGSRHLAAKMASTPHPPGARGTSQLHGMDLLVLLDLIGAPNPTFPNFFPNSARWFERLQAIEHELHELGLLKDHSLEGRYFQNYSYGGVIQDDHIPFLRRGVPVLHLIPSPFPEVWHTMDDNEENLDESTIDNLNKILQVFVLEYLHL

## O=C1N/C(=N\C2CCCCC2)C(c2ccc(Br)cc2)N1c1ccc2nc[nH]c2c1 (stereo not drawn) [Compound 199, 1-(1H-Benzoimidazol-5-yl)-5-(4-bromo-phenyl)-4-(cyclohexylimino)-imidazolidin-2-one]
[1]; [2]
  IC50: 23.5 nM
[1]; read-out: IC50
  IC50: 4 nM
other
  melting point: 205 °C

## O=C1N/C(=N/Cc2ccccc2)C(c2ccc(Br)cc2)N1c1ccc2[nH]cnc2c1 (stereo not drawn) [Compound 216, 1-(1H-Benzoimidazol-5-yl)-4-benzylimino-5-(4-bromo-phenyl)-imidazolidin-2-one]
[1]; [2]
  IC50: 22 nM
[1]; read-out: IC50
  IC50: 4 nM
other
  melting point: 244 °C

## O=C1N/C(=N\C2CCCC2)C(c2ccc3[nH]ccc3c2)N1c1ccc2[nH]cnc2c1 (stereo not drawn) [Compound 226, 1-(1H-Benzoimidazol-5-yl)-4-(cyclopentylimino)-5-(1H-indol-5-yl)-imidazolidin-2-one]
[1]; [2]
  IC50: 34.5 nM
[1]; read-out: IC50
  IC50: 4 nM
other
  melting point: 210 °C

## CC1=CC(C)C(C2/C(=N/c3ccc4c(c3)OCCO4)NC(=S)N2c2ccc3[nH]cnc3c2)CC1 (stereo not drawn) [Compound 330, 1-(1H-Benzoimidazol-5-yl)-4-2,3-dihydro-benzo1,4dioxin-6-ylimino-5-(2,4-dimethyl-cyclohex-3-enyl)-imidazolidine-2-thione]
[1]; read-out: IC50
  IC50: 9400 nM

## O=C1N/C(=N/c2ccc3c(c2)OCCO3)C(c2ccc(Br)cc2)N1c1ccc2[nH]cnc2c1 (stereo not drawn) [Compound 331, 1-(1H-Benzoimidazol-5-yl)-5-(4-bromo-phenyl)-4-[2,3-dihydro-benzo[1,4]dioxin-6-ylimino]-imidazolidin-2-one]
[1]; [2]
  IC50: 66.8 nM
[1]; read-out: IC50
  IC50: 4 nM

## Cc1ccc(C2/C(=N/C(C)(C)CC(C)(C)C)NC(=S)N2c2ccc3nc[nH]c3c2)c(C)c1 (stereo not drawn) [Compound 332, 1-(3H-Benzoimidazol-5-yl)-5-(2,4-dimethyl-phenyl)-4-1,1,3,3-tetramethyl-butylimino-imidazolidine-2-thione]
[1]; read-out: IC50
  IC50: 9400 nM

## O=C1N/C(=N\[C@H]2CCc3ccccc32)C(c2ccc(Br)cc2)N1c1ccc2[nH]cnc2c1 (stereo partly drawn) [Compound 333, 1-(1H-Benzoimidazol-5-yl)-5-(4-bromo-phenyl)-4-((S)-indan-1-ylimino)-imidazolidin-2-one]
[1]; [2]
  IC50: 28.2 nM
[1]; read-out: IC50
  IC50: 4 nM

## O=C1N/C(=N\c2ccc3c(c2)OCCO3)C(c2cccc(Br)c2)N1c1ccc2nc[nH]c2c1 (stereo not drawn) [Compound 334, 1-(3H-Benzoimidazol-5-yl)-5-(3-bromo-phenyl)-4-2,3-dihydro-benzo1,4dioxin-6-ylimino-imidazolidin-2-one]
[1]; read-out: IC50
  IC50: 400 nM

## O=C1CCCN1CCC/N=C1/NC(=O)N(c2ccc3[nH]cnc3c2)C1c1cc(F)cc(F)c1 (stereo not drawn) [Compound 335, 1-(1H-Benzoimidazol-5-yl)-5-(3,5-difluoro-phenyl)-4-3-(2-oxo-pyrrolidin-1-yl)-propylimino-imidazolidin-2-one]
[1]; read-out: IC50
  IC50: 1300 nM

## O=C1N/C(=N\C2CCCc3ccccc32)C(c2cccc(Br)c2)N1c1ccc2[nH]cnc2c1 (stereo not drawn) [Compound 336, 1-(1H-Benzoimidazol-5-yl)-5-(3-bromo-phenyl)-4-1,2,3,4-tetrahydro-naphthalen-1-ylimino-imidazolidin-2-one]
[1]; read-out: IC50
  IC50: 4 nM

## O=C1N/C(=N\Cn2nnc3ccccc32)C(c2ccccc2F)N1c1ccc2[nH]cnc2c1 (stereo not drawn) [Compound 337, 1-(1H-Benzoimidazol-5-yl)-4-benzotriazol-1-ylmethylimino-5-(2-fluoro-phenyl)-imidazolidin-2-one]
[1]; read-out: IC50
  IC50: 1300 nM

## O=C1N/C(=N\C(Cc2ccccc2)c2ccccc2)C(c2cccc(Br)c2)N1c1ccc2[nH]cnc2c1 (stereo not drawn) [Compound 338, 1-(1H-Benzoimidazol-5-yl)-5-(3-bromo-phenyl)-4-1,2-diphenyl-ethylimino-imidazolidin-2-one]
[1]; read-out: IC50
  IC50: 4 nM

## C/N=C1/NC(=O)N(c2ccc3[nH]cnc3c2)C1c1ccc(Cl)c(F)c1 (stereo not drawn) [Compound 339, 1-(1H-Benzoimidazol-5-yl)-5-(4-chloro-3-fluoro-phenyl)-4-methylimino-imidazolidin-2-one]
[1]; read-out: IC50
  IC50: 400 nM

## O=C(C/N=C1/NC(=O)N(c2ccc3[nH]cnc3c2)C1c1ccc(Cl)cc1)N1CCC(O)C1 (stereo not drawn) [Compound 340, 1-(1H-Benzoimidazol-5-yl)-5-(4-chloro-phenyl)-4-2-(3-hydroxy-pyrrolidin-1-yl)-2-oxo-ethylimino-imidazolidin-2-one]
[1]; read-out: IC50
  IC50: 4000 nM

## O=C1N/C(=N/CCN2CCOCC2)C(c2cccc(Br)c2)N1c1ccc2nc[nH]c2c1 (stereo not drawn) [Compound 341, 1-(3H-Benzoimidazol-5-yl)-5-(3-bromo-phenyl)-4-2-morpholin-4-yl-ethylimino-imidazolidin-2-one]
[1]; read-out: IC50
  IC50: 1300 nM

## O=C(C/N=C1/NC(=O)N(c2ccc3[nH]cnc3c2)C1c1cccc(Br)c1)N1CCSCC1 (stereo not drawn) [Compound 342, 1-(1H-Benzoimidazol-5-yl)-5-(3-bromo-phenyl)-4-2-oxo-2-thiomorpholin-4-yl-ethylimino-imidazolidin-2-one]
[1]; read-out: IC50
  IC50: 400 nM

## O=C(C/N=C1\NC(=O)N(c2ccc3[nH]cnc3c2)C1c1ccnc2ccccc12)N1CCC(O)CC1 (stereo not drawn) [Compound 343, 1-(1H-Benzoimidazol-5-yl)-4-2-(4-hydroxy-piperidin-1-yl)-2-oxo-ethylimino-5-quinolin-4-yl-imidazolidin-2-one]
[1]; read-out: IC50
  IC50: 6700 nM

## Cc1ccc(C2/C(=N/C3CCCCCC3)NC(=S)N2c2ccc3nc[nH]c3c2)c(C)c1 (stereo not drawn) [Compound 344, 1-(3H-Benzoimidazol-5-yl)-4-cycloheptylimino-5-(2,4-dimethyl-phenyl)-imidazolidine-2-thione]
[1]; read-out: IC50
  IC50: 4900 nM

## O=C1N/C(=N/CCc2ccccn2)C(c2c[nH]c3cc(F)ccc23)N1c1ccc2[nH]cnc2c1 (stereo not drawn) [Compound 345, 1-(1H-Benzoimidazol-5-yl)-5-(6-fluoro-1H-indol-3-yl)-4-2-pyridin-2-yl-ethylimino-imidazolidin-2-one]
[1]; read-out: IC50
  IC50: 4000 nM
